Each structure is given as a SMILES string.

A short description of the data set: gradient 5% acetonitrile 3 min, to 50% in 2 min, to 85% in 15 min, held 3 min, 100 µL/min. The note with it: column: Zorbax Extend-C18 2.1 x 50 mm; eluents: water / acetonitrile, 0.1% formic acid. The method, boiled down: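 Mixtures of ~100 pure standards were chromatographed on a Zorbax Extend-C18 column (2.1 × 50 mm, 1.8 μm) at 100 μL/min using water and acetonitrile, each with 0.1% formic acid. Detection used a quadrupole time-of-flight mass spectrometer in positive and negative ionization mode, and data collection spanned 3 months. Retention time was obtained from adduct peaks picked computationally and each checked manually.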
Regarding `COc1ccc(N2CC(c3noc(-c4ccccc4Cl)n3)CC2=O)cc1OC` (stereo not drawn), the RP-LC retention time was 880 s.

As for `Cc1ccc(-n2nc(CO)c(C(=O)NC3CCCC3)n2)cc1`, the RP-LC retention time was 1030 s.

Turning to `O=C(c1ccncc1)N1CCN(C(=O)c2nnn3c2COC(c2ccc(Cl)cc2)C3)CC1` (stereo not drawn), the RP-LC retention time worked out at 717 s.

`Cc1ccc(CN(CC(=O)N2CCNCC2)C(=O)c2sccc2C)cc1` showed an RP-LC retention time of 720 s.

For the compound `CC(NC(=O)Cn1c(=O)n(-c2ccc(F)cc2)c2ncccc21)c1ccccn1` (stereo not drawn), the RP-LC retention time worked out at 627 s.

Turning to `CC(C)N1C(=O)C2(CCCC2)C1C(=O)NCC1CCCCC1` (stereo not drawn), the RP-LC retention time was 775 s.

Regarding `O=C(Cn1cccc1-c1nnc(C2CC2)o1)NCc1cccc(Br)c1`, the RP-LC retention time turned out to be 869 s.

In turn, `CCCNc1cc(N2CCC(CCC(=O)Nc3ccc(OC)cc3OC)CC2)ncn1` yielded an RP-LC retention time of 648 s.

Regarding `COc1ccc(C(=O)N2CCC3(CC2)NC(=O)c2ccc(F)cc2N3C)cc1`, the RP-LC retention time turned out to be 740 s.

Turning to `COc1ccc(-c2ncc3c(n2)CCN(C(=O)Nc2cccc(Cl)c2C)C3)cc1`, the RP-LC retention time came to 1170 s.

As for `Cc1csc(-c2cc(S(=O)(=O)NCC3CC3)cn2CC(=O)N2CCCCC2)n1`, the RP-LC retention time is 905 s.

In turn, `COc1cccc(CC(=O)N2CCC3(CC2)N=C(c2ccccc2)NO3)c1` came in with an RP-LC retention time of 802 s.

As for `O=C(CCCn1ncn2c(cc3occc32)c1=O)N1CCN(c2ccccn2)CC1`, the RP-LC retention time is 577 s.

In turn, `O=C(NC1CC1)c1ncoc1-c1ccccc1C(=O)N1CCCCC1` gave an RP-LC retention time of 689 s.

Compound `CS(=O)(=O)N1CCN(C(=O)c2ccc(-n3cccn3)nn2)CC1` returned an RP-LC retention time of 601 s.

In the case of `CCOC(=O)Cc1csc(NC(=O)C2CCN(c3cc(-n4ccnc4)ncn3)CC2)n1`, the RP-LC retention time is 576 s.

`COc1ccc(NC(=O)Cc2c(C)nn(-c3nc(-c4ccccc4)cs3)c2C)cc1`: the RP-LC retention time came out at 1110 s.

`CN1CCC(NC(=O)c2n[nH]c3c2CN(C(=O)c2ccccc2Br)CC3)CC1` yielded an RP-LC retention time of 595 s.

Turning to `O=S(=O)(Nc1ccc(F)cc1)c1cccnc1N1CCOCC1`, the RP-LC retention time stood at 801 s.

`c1ccc(Cn2cnnc2C2CCCCN2Cc2ccoc2)cc1` (stereo not drawn) yielded an RP-LC retention time of 601 s.

Compound `CSc1ccc(CNC(=O)c2nnc(-c3ccc(S(=O)(=O)N(C)C)cc3)o2)cc1` displayed an RP-LC retention time of 889 s.

For the compound `CCCN(CC1CC1)C(=O)c1nn(CCOC)c2c1CNCC2`, the RP-LC retention time was found to be 567 s.

Regarding `Cn1cc(C2c3nccn3CCCN2S(=O)(=O)c2cccc(C(F)(F)F)c2)cn1` (stereo not drawn), the RP-LC retention time was 656 s.

With `CCOCCCNC(=O)c1nc(Nc2ccc(CC)cc2)c2ccccc2n1`, the RP-LC retention time was 813 s.

In the case of `COc1cc(CNC(=O)CCc2c(-c3ccc(F)cc3)nc3ccccn23)cc(OC)c1OC`, the RP-LC retention time is 632 s.

Turning to `CCc1ccc(S(=O)(=O)NCCOc2ccc(-c3ccco3)nn2)s1`, the RP-LC retention time was 804 s.

`COc1cccc(-c2nnc(Cc3nc(-c4cccc(OC)c4OC)no3)o2)c1` returned an RP-LC retention time of 923 s.

For `CC(C)CC(=O)N1CCc2[nH]nc(C(=O)NCCCc3ccccc3)c2C1`, the RP-LC retention time was determined as 795 s.

On to `CC1(C(=O)NCc2ccc3c(c2)OCO3)Oc2cccnc2NC1=O` (stereo not drawn), for which the RP-LC retention time was 672 s.

In turn, `Cc1ccc(-c2nc(-c3ccc(-c4noc(CNS(=O)(=O)c5ccccc5)n4)cc3)cs2)s1` gave an RP-LC retention time of 1290 s.

With `COc1cccc(CNC(=O)C2(C)CCCN(C(=O)Nc3ccc(OC)c(OC)c3)C2)c1` (stereo not drawn), the RP-LC retention time came to 746 s.

For the compound `CCCNC(=O)C1CCCN(c2ccc(SCC(=O)Nc3ccc(C)c(F)c3)nn2)C1` (stereo not drawn), the RP-LC retention time amounted to 718 s.

Take `Cc1cccc(S(=O)(=O)N2CCN(c3cnn4c(C5CC5)nnc4c3)CC2)c1`: the RP-LC retention time is 752 s.

Compound `COCCCNC(=O)c1nc(Nc2ccccc2)c2ccccc2n1` displayed an RP-LC retention time of 664 s.

For `O=C(Cc1ccc(NC(=O)Nc2ccc3c(c2)OCO3)cc1)NCC(F)(F)F`, the RP-LC retention time was found to be 716 s.

For the compound `COCCCNC(=O)N1CC(n2cc(COc3ccc(F)cc3)nn2)C1`, the RP-LC retention time was 691 s.

For `COc1ccc(-c2nnc(-c3cccc(S(=O)(=O)N4CCCCC4)c3)o2)cc1`, the RP-LC retention time was determined as 1060 s.

Turning to `O=C(NC1CCCCCC1)C1CCN(C(=O)c2ncn3c2COC(c2ccc(F)cc2)C3)CC1` (stereo not drawn), the RP-LC retention time is 846 s.

`COc1ccc(Cl)cc1C(=O)N1CCN(c2ccc(-c3nc(C)c(C)s3)cn2)CC1` gave an RP-LC retention time of 956 s.

As for `CCCCOc1ccc(-c2nc(C3CC(=O)N(c4ccc(F)c(Cl)c4)C3)no2)cc1` (stereo not drawn), the RP-LC retention time amounted to 1370 s.

`COc1cccc(-c2noc(Cn3c(=O)n(-c4cccc(OC)c4)c(=O)c4sccc43)n2)c1` returned an RP-LC retention time of 970 s.

The compound `Cn1nccc1-c1cccc(-c2noc(/C=C/c3ccccc3)n2)c1` returned an RP-LC retention time of 1160 s.

Compound `Cc1noc(C)c1CC(=O)NCC1Cn2cccc2C(=O)N1C` (stereo not drawn) returned an RP-LC retention time of 598 s.

Compound `O=C(NCc1ccc(F)cc1F)C1CCN(c2cnc(N3CCCC3)nc2)CC1` returned an RP-LC retention time of 668 s.

`COc1cc(C(=O)Nc2ccc(-c3cn4ccc(C)nc4n3)cc2)cc(OC)c1OC` showed an RP-LC retention time of 634 s.

`COC(=O)c1ccccc1NC(=O)N(Cc1cc(=O)[nH]c2ccccc12)C(C)C` gave an RP-LC retention time of 831 s.

`Cc1ccc(CN2CCN(CC(=O)Nc3ccc(C)cc3)C(=O)C2=O)cc1` yielded an RP-LC retention time of 786 s.

The compound `Cc1ccc(S(=O)(=O)N2CCC3(CC2)NCCN=C3NCc2ccc(C(F)(F)F)cc2)cc1` registered an RP-LC retention time of 789 s.

Take `Cc1nc(C2CCOCC2)n(C2CCN(S(=O)(=O)c3cc(F)cc(F)c3)C2)n1` (stereo not drawn): the RP-LC retention time was 740 s.

For `Cc1ccc(C)c(NC(=O)C2CCC(=O)N2S(=O)(=O)c2ccc(C)c(C)c2)c1` (stereo not drawn), the RP-LC retention time is 962 s.

As for `Cc1nnsc1C(=O)N1CCC(CNC(=O)c2cc(-c3ccccc3)on2)CC1`, the RP-LC retention time was 761 s.

On to `O=C(N[C@H]1C[C@@H]2C[C@H]1CN2S(=O)(=O)c1ccc2c(c1)CCC2)c1cccs1`, for which the RP-LC retention time was 943 s.

`COc1ccc(-c2nc3cccnc3n2C2CCN(C(=O)NCc3ccco3)C2)cc1` (stereo not drawn) yielded an RP-LC retention time of 627 s.

In the case of `CCCN1CCN(c2cc(C(=O)O)c3cc(NS(=O)(=O)c4ccccc4Cl)ccc3n2)CC1`, the RP-LC retention time was 595 s.

For `Cc1cc(N2CCN(C(=O)c3ccccc3F)CC2)nc(N2CCOCC2)n1`, the RP-LC retention time was 608 s.

Regarding `O=C(NCc1ccccc1)C1CCN(S(=O)(=O)c2cc(-c3noc(C4CCC4)n3)cs2)CC1`, the RP-LC retention time was 1020 s.

Take `O=C(c1ccc(F)c(Cl)c1)N1CCC(n2c(-c3ccco3)nc3cccnc32)C1` (stereo not drawn): the RP-LC retention time came out at 800 s.

`O=C(NC1CCN(c2cc(-c3ccccc3)[nH]n2)C1)c1cccc(Cl)c1` (stereo not drawn) registered an RP-LC retention time of 763 s.

`Cc1ccc(C2Cn3nnc(-c4nc(-c5cccnc5)no4)c3CO2)c(C)c1` (stereo not drawn) gave an RP-LC retention time of 1040 s.

`CCS(=O)(=O)N1C[C@@H](COc2cccnc2)[C@H](c2ccccn2)C1` registered an RP-LC retention time of 561 s.

In turn, `CCS(=O)(=O)c1ccc2c(c1)N(Cc1nc(-c3ccc(F)cc3)no1)C(=O)CO2` yielded an RP-LC retention time of 902 s.

For `COC(=O)c1ccc(S(=O)(=O)NCc2nc(C)no2)cc1`, the RP-LC retention time is 659 s.

For the compound `Cc1cccc(-c2nc(-c3ccc4c(c3)ncn4CCN3CCCC3)no2)c1`, the RP-LC retention time is 676 s.

For `O=C(NC1CCCCCC1)c1ccnc(N2CCNC(c3ccccc3)C2)c1` (stereo not drawn), the RP-LC retention time stood at 684 s.

For the compound `COCC(=O)Nc1ccc2c(c1)N(C(=O)c1cccs1)CCC2`, the RP-LC retention time is 758 s.

For `CCOc1ccc(-n2cc(C(=O)OCC(=O)OC)c3ccccc3c2=O)cc1`, the RP-LC retention time worked out at 1000 s.

Regarding `O=C(CCc1ccc2nc[nH]c2c1)Nc1ccc2c(c1)OCCO2`, the RP-LC retention time is 591 s.

Compound `CCCS(=O)(=O)N1CCCc2cc(NC(=O)Nc3cccc(OC)c3OC)ccc21` showed an RP-LC retention time of 908 s.

`CCOc1cccc(-c2noc(CN3C(=O)COc4ccccc43)n2)c1` showed an RP-LC retention time of 1050 s.

`Cc1cccc(C)c1NC(=O)Cn1ncc2c(c1=O)N(C1CC1)C(=O)CS2` yielded an RP-LC retention time of 714 s.

`CC(=O)N1c2ccc(S(=O)(=O)N3CCCCC3)cc2CC1C(=O)N(C)Cc1ccccc1` (stereo not drawn) had an RP-LC retention time of 864 s.

`COc1ccc(Cn2c(=O)c3sccc3n(Cc3nc(-c4ccccc4)no3)c2=O)cc1` yielded an RP-LC retention time of 1000 s.

In the case of `COc1ccc(NC(=O)Cc2csc3nc(-c4cccc(Cl)c4)cn23)cc1OC`, the RP-LC retention time was determined as 831 s.

`Cc1cc(N2CCOCC2)nc(N2CCN(C(=O)c3c(F)cccc3F)CC2)n1` returned an RP-LC retention time of 1050 s.

As to `CCCN(CCC)C(=O)C1COC2(CCCCC2)N1C(=O)c1c(OC)cccc1OC` (stereo not drawn), the RP-LC retention time is 864 s.

Compound `CCOC(=O)CNC(=O)NCc1cccn1Cc1cc(C)ccc1C` showed an RP-LC retention time of 888 s.

In the case of `COc1cccc(CC(=O)N2CCN3CCS(=O)(=O)N(C4CC4)C(=O)C3C2)c1` (stereo not drawn), the RP-LC retention time was found to be 747 s.

Turning to `COc1ccc(OCc2nc(-c3cccc(-c4csc(C5CC5)n4)c3)no2)cc1`, the RP-LC retention time is 1300 s.

The record behind these values is the METLIN SMRT retention time set (Domingo-Almenara et al. 2019).
